The structures appear in SMILES notation. Where a SMILES comes first, the peptide text is derived from it. The star is where a group is joined. X1 = O=C(OCc1ccccc1[N+](=O)[O-])*; Cbz = O=C(OCc1ccccc1)*

In ChEMBL document CHEMBL1132263, “Synthesis of caged peptides using caged lysine: application to the synthesis of caged AIP, a highly specific inhibitor of calmodulin-dependent protein kinase II” (Bioorg Med Chem Lett, 1999) one finds IC50 data, which are given here for 4 compounds.

The target in this assay is CaM kinase II (Homo sapiens, UniProt Q13557+Q13555+Q13554+Q9UQM7). The experiment in a line: Inhibitory activity of compound against CaMKII. Type of assay: protein assay.
As to `CC(C)C[C@H](NC(=O)[C@H](C)NC(=O)[C@H](CC(=O)O)NC(=O)[C@@H](NC(=O)[C@H](C)NC(=O)[C@H](CCC(=O)O)NC(=O)[C@H](CCC(N)=O)NC(=O)[C@H](CCCN=C(N)N)NC(=O)[C@H](CCCN=C(N)N)NC(=O)[C@H](CC(C)C)NC(=O)[C@H](C)NC(=O)[C@H](CCCCNC(=O)OCc1ccccc1[N+](=O)[O-])NC(=O)[C@@H](N)CCCCNC(=O)OCc1ccccc1[N+](=O)[O-])C(C)C)C(=O)O` (H-K(X1)K(X1)ALRRQEAVDAL-OH), the 50% inhibitory concentration (IC50) came to 1200 nM.

The compound `CC(C)C[C@H](NC(=O)[C@H](C)NC(=O)[C@H](CC(=O)O)NC(=O)[C@@H](NC(=O)[C@H](C)NC(=O)[C@H](CCC(=O)O)NC(=O)[C@H](CCC(N)=O)NC(=O)[C@H](CCCN=C(N)N)NC(=O)[C@H](CCCN=C(N)N)NC(=O)[C@H](CC(C)C)NC(=O)[C@H](C)NC(=O)OCc1ccccc1)C(C)C)C(=O)O` (Cbz-ALRRQEAVDAL-OH) came in with an IC50 of 1000 nM.

Regarding `CC(C)C[C@H](NC(=O)[C@H](C)NC(=O)[C@H](CC(=O)O)NC(=O)[C@@H](NC(=O)[C@H](C)NC(=O)[C@H](CCC(=O)O)NC(=O)[C@H](CCC(N)=O)NC(=O)[C@H](CCCN=C(N)N)NC(=O)[C@H](CCCN=C(N)N)NC(=O)[C@H](CC(C)C)NC(=O)[C@H](C)NC(=O)[C@H](CCCCN)NC(=O)[C@@H](N)CCCCN)C(C)C)C(=O)O` (H-KKALRRQEAVDAL-OH), the IC50 turned out to be 32 nM.

Compound `CC(C)C[C@H](NC(=O)[C@H](C)NC(=O)[C@H](CC(=O)O)NC(=O)[C@@H](NC(=O)[C@H](C)NC(=O)[C@H](CCC(=O)O)NC(=O)[C@H](CCC(N)=O)NC(=O)[C@H](CCCN=C(N)N)NC(=O)[C@H](CCCN=C(N)N)NC(=O)[C@H](CC(C)C)NC(=O)[C@H](C)NC(=O)[C@H](CCCCN)NC(=O)[C@@H](N)CCCCNC(=O)OCc1ccccc1[N+](=O)[O-])C(C)C)C(=O)O` (H-K(X1)KALRRQEAVDAL-OH) came in with an IC50 of 36 nM.
